Measurements: US20210008161A1, “METHODS AND COMPOSITIONS FOR IMPROVED HOMOLOGY DIRECTED REPAIR” (CRISPR THERAPEUTICS AG, priority 2019, published 2021)

What was measured:
[1] = system: human LT-HSPCs administered to cKit mice; assay: Erythroid cell enucleation in mouse bone marrow; type: in vivo; details: bone marrow 16 weeks; vs cells treated with RNP-only or AAV-only; FIG. 28
Procedure: The functionality of the hematopoietic compartment in recipient mice was evaluated by measuring erythroid cell enucleation in bone marrow collected at 16 weeks post-engraftment. Mammalian erythrocytes extrude their nucleus prior to entering circulation. Human CD34-expressing LT-HSPCs are expected to differentiate into erythrocytes following engraftment, however the efficiency of enucleation can be low. Assessment of erythroid cell enucleation provides a measure of the ability of edited CD34 expressing cells to differentiate into erythroid cells compared to the unedited controls (i.e., ability to differentiate into functional cell types). Percent enucleation was compared for LT-HSPCs gene edited with Cas9/gRNA RNP and AAV given pre-EP or post-EP. […] Additionally, levels of enucleation were compared for LT-HSPCs gene edited with RNP+AAV in the presence of i53 or Nu7441.

HEK293 T cells = assay: BFP to GFP fluorescent reporter assay of HDR efficiency (AAVS1 locus); type: cell-based, human
Procedure: An in vitro assay was conducted to determine the ability of various inhibitors and enhancers to improve the efficiency of HDR repair in HEK293 T cells. Specifically, a fluorescent reporter-based screening approach was developed to identify molecules that enhance gene-editing by HDR. A reporter system was generated in HEK293 T cells comprising a genomic AAVS1 locus that encoded either a blue fluorescent protein (BFP) or a green fluorescent protein (GFP) within the AAVS1 locus. A gene encoding BFP can be converted to a gene encoding GFP by substitution of cytosine at position 199 to uridine (e.g., a C to U transition at position 199). By introducing a DSB within the BFP gene using a CRISPR/Cas9 gene-editing system, a homology donor DNA encoding the nucleotide substitution can be used to edit the BFP gene to a GFP gene by HDR repair. Thus, a gene edit that induces a C to U transition at position 199 results in a change in cellular fluorescence. A change in the fluorescence of the cell measured by flow cytometry can be used to quantify efficiency of HDR repair. Additionally, the reverse gene edit can be performed for an AAVS1 locus encoding a GFP gene, wherein a GFP can be converted to BFP by substitution of uridine at position 199 to cytosine.
To create the reporter system, an AAV-based homology donor DNA encoding either BFP or GFP was created. The AAV-BFP or AAV-GFP donor was flanked by homology arms that were 1000 base pairs in length and expression of BFP or GFP was driven by the MND promoter (e.g., a synthetic promoter that contains the U3 region of a modified Moloney murine leukemia virus long term terminal repeat with myeloproliferative sarcoma virus enhancer and deleted negative control region, SEQ ID NO: 58). The viral DNA was packaged into capsids of adeno-associated virus serotype 6 (AAV6) vector. Either the BFP or GFP donor was introduced using the AAV6 vector into the AAVS1 locus in HEK293 T cells by homologous recombination using CRISPR-Cas9 as follows: purified Cas9 protein was complexed with two different single gRNAs (sgRNAs) targeting the AAVS1 locus at SEQ ID NO: 3 (spacer sequence identified by SEQ ID NO: 4; gRNA obtained from Maxcyte) or SEQ ID NO: 5 (spacer sequence identified by SEQ ID NO: 6; gRNA obtained from Thermo Fisher). Cas9 protein used in the Exemplary section provided herein refers to Cas9 polypeptide derived from S. pyogenes (SpCas9), unless indicated otherwise.
The Cas9-sgRNA complex was electroporated into the HEK293 T cells using the Lonza Nucleofector program CM-130. Approximately, 2 hours after electroporation, the cells were infected with various viral doses of AAV6 encoding a BFP (SEQ ID NO: 44) or GFP homology donor (SEQ ID NO: 47). One week later, cells were analyzed by flow cytometry to verify integration and expression of BFP or GFP in the AAVS1 locus. HEK293 T cells expressing BFP or GFP were sorted into single cells in 96-well plates. After ˜2 weeks of growth, DNA extracted from individual cells was analyzed for precise integration of the respective BFP or GFP gene into the AAVS1 locus by long-range PCR. This PCR analysis allowed for determination of whether the BFP/GFP gene was integrated in one or both alleles of the AAVS1 locus.
To introduce a gene edit that converts BFP to GFP, cells were electroporated with ribonucleoprotein (RNP) comprised of Cas9 and sgRNA that targets the BFP gene encoded in the AAVS1 locus. The sgRNA targeted a sequence in the BFP gene identified by SEQ ID NO: 7 (sgRNA spacer sequence identified by SEQ ID NO: 8). The sgRNA were prepared using a standard sgRNA cassette specific to SpCas9, as indicated by SEQ ID NO: 2 (wherein a, c, g, u represent 2′ O-methyl phosphorothioate nucleotides; s represents phosphorothioate nucleotides; and A, C, G, U, N represent canonical RNA nucleotides). The gRNAs used in the Exemplary section provided herein were sgRNAs prepared with the SpCas9 sgRNA cassette unless indicated otherwise. […]

[2] = 1.25 μM SCR7 or 10 μM RS-1, ssODN1-4, relative to DMSO alone, FIG. 1A

O=c1cc(N2CCOCC2)oc2c(-c3cccc4c3sc3ccccc34)cccc12 [Nu7441]
levels of erythroid cell enucleation [1]: similar | fold higher HDR efficiency (HEK293 T cells; 2.5 μM Nu7441, each of ssODN1-4, FIG. 1A): approximately 3 fold | fold higher HDR efficiency, high vs low concentration (HEK293 T cells; 2.5 μM vs 0.6 μM, FIG. 1B, 1C): approximately 1.5 fold | HDR efficiency at higher concentrations (HEK293 T cells; concentrations higher than 2.5 μM): no further improvement | improvement in HDR efficiency, dose dependence (HEK293 T cells; varied doses, FIG. 1B): dose-dependent

O=C(Nc1ccc(Br)cc1)c1ccc(Br)c(S(=O)(=O)NCc2ccccc2)c1 [RS-1]
HDR efficiency (HEK293 T cells; [2]): no improvement

O=c1[nH]c(=S)[nH]c(N=Cc2ccccc2)c1N=Cc1ccccc1 [SCR7]
HDR efficiency (HEK293 T cells; [2]): no improvement

i53: polypeptide inhibitor of 53BP1 (SEQ ID NO: 70), introduced as an mRNA-encoded protein (ORF SEQ ID NO: 69)
levels of erythroid cell enucleation [1]: similar | HDR efficiency (HEK293 T cells; different doses of mRNA encoding i53, ssODN Hn-91-61 and Ht-39-88, FIG. 1D): increased
